Here are results for eight molecules from patent US6506755B2, “Thiazolidinecarboxyl acids” (Hoffmann-La Roche Inc., priority 2000, dated 2003).

human urokinase (uPA) binding to the specific receptor uPAR, sequence (Q03405 23-305 limits assumed): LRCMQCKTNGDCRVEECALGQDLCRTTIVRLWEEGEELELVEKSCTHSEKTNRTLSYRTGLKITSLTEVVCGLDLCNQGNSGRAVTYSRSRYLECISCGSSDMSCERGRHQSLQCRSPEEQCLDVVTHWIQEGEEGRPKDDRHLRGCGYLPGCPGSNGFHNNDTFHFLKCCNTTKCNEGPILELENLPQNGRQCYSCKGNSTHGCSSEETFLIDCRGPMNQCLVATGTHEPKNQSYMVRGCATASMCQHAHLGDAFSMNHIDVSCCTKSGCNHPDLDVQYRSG

Test system in one series: not given
Assay: not given
Conditions: not given
On to `Cc1ccc(COc2ccc(C=C3SC(=S)N(CC(=O)O)C3=O)c(OCc3ccc(C)cc3)c2)cc1` [Compound 2, 5-[(2,4-Bis-(4-methylphenylmethoxy)phenyl)methylene]-4-oxo-2-thioxo-3-thiazolidineacetic acid], for which the melting point (usually the temperature of the solid-liquid transition) was 211 °C.

The next series deals with human urokinase (uPA) binding to the specific receptor uPAR (Homo sapiens, UniProt Q03405). Put plainly: ELISA test of inhibition of uPA binding to the receptor uPAR. The settings on record: compound concentration 1 μg/ml, 96-well microtitre plates. The method, then:
The compound of the invention were tested (ELISA test) as human urokinase (uPA) inhibitors, which bind to the specific receptor uPAR mAk (BIO-R4), in accordance with the procedure described by Rettenberger et al. In Biol. Chem. Hoppe Seyler 376, 587-94 (1995). The assays are carried out in microtitre plates (96 wells).
For orientation: In an ELISA, binding on a coated surface is turned into a signal by an enzyme label.
Consider `O=C(O)CN1C(=O)C(=Cc2cc(OCCCc3ccccc3)ccc2OCc2cccs2)SC1=S` [Example 15, 5-[(2-(2-Thienylmethoxy)-5-(3-phenylpropoxy)phenyl)methylene]-4-oxo-2-thioxo-3-thiazolidineacetic Acid], for which the inhibition (as a rule, the share of the control response that was lost under treatment) at 1 µg/mL was 63%.

As to `Cc1ccc(COc2ccc(C=C3SC(=S)N(C(C(=O)O)c4ccccc4)C3=O)c(OCc3ccc(C)cc3)c2)cc1` (stereo not drawn) [Example 22, 2-{5-[(2,4-Bis-(4-methylphenylmethoxy)phenyl)methylene]-4-oxo-2-thioxo-3-thiazolidine}-2-phenylacetic Acid], the % Inhibition (commonly the share of the control response that was lost under treatment) at 1 μg/ml concentration is reported as 60%.

As for `Cc1ccc(COc2ccc(C=C3SC(=S)N(C(Cc4ccccc4)C(=O)O)C3=O)c(OCc3ccc(C)cc3)c2)cc1` (stereo not drawn) [Example 23, 2-{5-[(2,4-Bis-(4-methylphenylmethoxy)phenyl)methylene]-4-oxo-2-thioxo-3-thiazolidine}-3-phenypropionic Acid], the “% Inhibition at 1 μg/ml concentration” value turned out to be 54%. `Cc1ccc(COc2ccc(C=C3SC(=S)N(C(C(=O)O)c4ccc(Cl)cc4)C3=O)c(OCc3ccc(C)cc3)c2)cc1` (stereo not drawn) [Example 24, 2-{5-[(2,4-Bis-(4-methylphenylmethoxy)phenyl)methylene]-4-oxo-2-thioxo-3-thiazolidine}-2-(4-chlorophenyl)acetic Acid]: the “% Inhibition at 1 μg/ml concentration” value stood at 69%. `Cc1ccc(COc2ccc(C=C3SC(=S)N(CC(=O)O)C3=O)c(OCc3ccc(C)cc3)c2)cc1` [Compound 2, 5-[(2,4-Bis-(4-methylphenylmethoxy)phenyl)methylene]-4-oxo-2-thioxo-3-thiazolidineacetic acid] showed an inhibition at 1 µg/mL of 48%. `O=C(O)CN1C(=O)C(=Cc2cc(OCCCc3ccccc3)ccc2OCc2ccccc2)SC1=S` [Example 13, 5-[(2-Phenylmethoxy-5-(3-phenylpropoxy)phenyl)methylene]-4-oxo-2-thioxo-3-thiazolidineacetic Acid]: the inhibition at 1 µg/mL stood at 53%.

`Cc1ccc(COc2ccc(OCc3ccc(C)cc3)c(C=C3SC(=S)N(CC(=O)O)C3=O)c2)cc1` [Example 2, 5-[(2,5-Bis-(4-methylphenylmethoxy)phenyl)methylene]-4-oxo-2-thioxo-3-thiazolidineacetic Acid]: 1 µg/mL produced 68% inhibition. Same read-out and setting: the figure for `O=C(O)CN1C(=O)C(=Cc2cc(OCCCc3ccc(Cl)cc3)ccc2OCCCc2ccc(Cl)cc2)SC1=S` [Example 6, 5-[(2,5-Bis-(3-(4-chlorophenyl)propoxy)phenyl)methylene]-4-oxo-2-thioxo-3-thiazolidine-acetic Acid] is 57%.
